Data taken from patent US20060258717A1, “ORGANIC COMPOUNDS” (priority 2004, published 2006).
Where two headings read alike, the source gives them in different places.

Tested on: human umbilical vein endothelial cells (HUVECs)
Settings: for number of tubes (capillary networking) versus control: 24 hours, HUVECs on growth factor-reduced Matrigel, 8 wells, five random fields per well
Description: Various concentrations of compound A (0.1, 1, and 10 μM) are tested to assess the quality of effect of this compound on capillary networking (tube formation) in cultured human umbilical vein endothelial cells (HUVECs) seeded on growth factor-reduced Matrigel. The intensity of capillary networking is evaluated at 24 hours using a phase-contrast microscope. Images are captured and analySYS 3.2 software is used to count the number of tubes in five random fields of each well (8 wells altogether). The effect of the compound is compared to untreated cells grown in cell culture medium (control).

Structure (SMILES): Cc1nccn1Cc1ccccn1 [Compound A, [2-(2-methylimidazol-1-yl)methyl]pyridine]
- number of tubes (capillary networking) versus control (1 μM compound): significantly decreases the number of tubes
- number of tubes (capillary networking) versus control (10 μM compound): significantly decreases the number of tubes
- cell toxicity (ToxiLight, ATP release from damaged cells) (additional study, concentrations not given): not related to cell toxicity
